“Also recorded” adds a separate entry of the source.
Key:
[1] = test system: TGF-β1 Smad⅔ signaling pathway in NK cells; assay: Phospho-Smad⅔ assay in NK cells co-cultured with GSCs; assay type: cell-based, human; conditions: for p-Smad⅔ expression (MFI) in NK cells co-cultured with GSCs: healthy control NK cells + GSCs, inhibitor 10 μM
Experimental: (§1) GSCs and purified NK cells were co-cultured for 48 hours in the presence of anti-TGFβ 123 (5 μg/ml) (R&D), HLA-ABC blocking antibody (clone W 6/32, Biolegend), CD44 blocking antibody (clone IM7, Biolegend), ILT-2 (CD85J) blocking antibody (clone HP-F1, ThermoFisher), CD155 blocking antibody (clone D171, GenTex), CD112 blocking antibody (clone TX31, Biolegend), 10 μM LY2109761, 10 μM galunisertib (LY2157299), 10 μM Cilengitide (Cayman Chemical) or 1 μM MMP-2/MMP-9 inhibitor I (Millipore). Cytotoxicity assays were then performed as described above.
NK cells were stained with Live/dead-aqua and CD56 ECD (Beckman Coulter) for 20 min in the dark at RT, washed with PBS fixed for 10 min in the dark. After one wash, the cells were permeabilized (Beckman Coulter kit) and stained with p-(5465/5467)-Smad2/p-(5423/5425)/Smad3-Alexa 647 mAb Phosflow antibody (BD Biosciences) for 30 minutes at room temperature. Cells incubated with 10 ng/ml recombinant TGF-β for 45 minutes in 37° C. were used as positive control.

GSC targets = assay: NK cell functional assay (51Cr release; CD107a, IFN-γ, TNF-α) against GSC targets after co-culture with GSCs; assay type: cell-based, human; conditions: 48 hours co-culture with GSCs 1:1; inhibitor 10 μM
Experimental: (§2) NK cells were co-cultured for 5 hours with K562 or GSCs target cells at an optimized effector:target ratio of 5:1 together with CD107a PE-CF594 (BD Biosciences), monensin (BD GolgiStopTM) and BFA (Brefeldin A, Sigma Aldrich). NK cells were incubated without targets as the negative control and stimulated with PMA (50 ng/mL) and ionomycin ([…], Sigma Aldrich) as positive control. Cells were collected, washed and stained with surface antibodies (mentioned above), fixed/permeabilized (BD Biosciences) and stained with IFN-7 v450 and TNF-α Alexa700 (BD Biosciences) antibodies.
(§3) NK cell cytotoxicity was assessed using chromium (siCr) release assay. Briefly, K562 or GSCs target cells were labeled with siCr (PerkinElmer Life Sciences, Boston, Mass.) at 50 μCi/5×10^5 cells for 2 hours. ^51Cr-labeled K562/GSC targets (5×105) were incubated for 4 h with serially diluted magnetically isolated NK cells in triplicate. Supernatants were then harvested and analysed for ^51Cr content.
For studies of NK cell suppression by GSCs and human astrocytes, magnetically selected healthy NK cells were cultured in Serum-free Stem Cell Growth Medium (SCGM; CellGro/CellGenix) supplemented with 5% glutamine, 5 μM HEPES (both from GIBCO/Invitrogen), and 10% FCS (Biosera) in 96-well flat-bottomed plates (Nunc) at 100,000/100D11. […]

K562 targets = assay type: cell-based, human; conditions: 48 hours
Experimental: as §2, §3
For studies of NK cell suppression by GSCs and human astrocytes, magnetically selected healthy NK cells were cultured in Serum-free Stem Cell Growth Medium (SCGM; CellGro/CellGenix) supplemented with 5% glutamine, 5 μM HEPES (both from GIBCO/Invitrogen), and 10% FCS (Biosera) in 96-well flat-bottomed plates (Nunc) at 100,000/100D11. NK cells were co-cultured either alone (positive control) or with GSCs or astrocytes at a 1:1 ratio for 48 hours at 37° C. before performing functional assays to assess NK cells cytotoxicity.
as §1

patient-derived GSCs = assay: Xenogeneic (PDX) NSG mouse model of GBM; assay type: in vivo
Experimental: To test this prediction, a PDX mouse model of patient-derived GSC was used, in which, ffLuc+ patient-derived GSCs (0.5×10^6) were stereotactically implanted on day 0 through a guide-screw into the right forebrain of NOD/SCID/IL2Rγc null mice (n=4-5 per group). After 7 days, the mice were treated intratumorally with 2.0×10^6 human NK cells every 7 days for 11 weeks (FIG. 5A) with either galunisertib to block the TGF-β signaling or cilengitide to block the integrin pathway. Galunisertib was administered five times a week by oral gavage and cilengitide three times a week by intraperitoneal injection. Animals implanted with tumor that were either untreated or received NK cells alone, galunisertib alone or cilengitide alone served as controls.
To assess the anti-tumor effect of NK cells against GSCs in vivo, a NOD/SCID IL-2R7null (NSG) human xenograft model (Jackson Laboratories, Bar Harbor, Me.) was used. Intracranial implantation of GSCs into male mice was performed as previously described^55. A total of 60 mice were used. 0.5×10^5 GSCs were implanted intracranially into the right frontal lobe of 5 week old NSG mice using a guide-screw system implanted within the skull. To increase uniformity of xenograft uptake and growth, cells were injected into 10 animals simultaneously using a multiport Microinfusion Syringe Pump (Harvard Apparatus, Holliston, Mass.). Animals were anesthetized with xylazine/ketamine during the procedure. For in vivo bioluminescent imaging, GSCs were engineered to express luciferase by lentivirus transduction. Kinetics of tumor growth was monitored using weekly bioluminescence imaging (BLI; Xenogen-IVIS 200 Imaging system; Caliper, Waltham, Mass.). Signal quantitation in photons/second (p/s) was performed by determining the photon flux rate within standardized regions of interest (ROI) using Living Image software (Caliper). […] expanded donor peripheral blood NK cells^56 were injected intracranially via the guide-screw at day 7 post tumor implantation, and then every 7 days for 11 weeks. Mice were treated with either cilengitide or galunisertib (both from MCE Med Chem Express, Monmouth Junction, NJ) in the presence or absence of intracranial NK cell injection. Cilengitide was administered intraperitoneally 3 times a week starting at day 1 (250 μg/100 μl PBS) while galunisertib was administered orally (75 mg/kg) by gavage 5 days a week starting at day 1 (see FIG. 5A). […]
Brain tissue specimens from untreated control mice, mice treated with either NK cells alone, cilengitide alone, galunisertib alone or with combination therapy of NK+ cilengitide or NK+ galunisertib were collected. […] Sections lacking tumor were also evaluated for evidence of meningoencephalitis using a Leica DM 2500 light microscope by a board-certified veterinary pathologist. […]

soluble TGF-β1 = assay: TGF-β ELISA of NK cell/GSC co-culture supernatant; assay type: cell-based, human; conditions: NK cells + GSCs, cilengitide 10 μM, 48 hours
Experimental: NK cells and GSCs were either co-cultured or cultured alone for 48 hours in serum free SCGM growth medium. After 48 hours, supernatants were collected and secretion of TGF R and MMP2/3/9 was assessed in the supernatant by TGFβ1 ELISA kit (R&D systems) or MMP2/3/9 luminex kit (eBiosciences) as per the manufacturer's protocol.

[2] = test system: NKG2D, CD9, CD103 on TiNKs; assay: Flow cytometry of TiNKs extracted from mouse brain tumor; assay type: in vivo, mouse (NSG)
Text: FIG. 20. […] Heat map representation of the surface markers NKG2D, CD9, CD103, PD-1 and CD69. Once the mice were sacrificed, the brain tissue was processed and TiNKs were extracted from the GBM tumor. The cells we then stained for the indicated surface markers and analyzed using flow cytometry. The expression is presented as percentage of the cells expressing each marker within the total NK cell population.
Brain tissue from the animals was collected and NK cells were isolated using a percoll (GE Healthcare) gradient fallowing protocol described by Pino et al^57. Briefly, brain tissue was dissociated using a 70 μm cell strainer (Life Science, Durham, N.C.). Cell suspension was re suspended in a 30% isotonic percoll solution and layer on top of a 70% isotonic percoll solution. Cells were centrifuged at 500 G for 30 minutes and 18 °C with no brake. 2-3 ml of the 70%-30% interface was collected in a clean tube and washed with PBS 1X. After this procedure, cells were ready for immunostaining with mouse CD45, human CD45, CD56, CD3, CD103, CD9, CD69, PD-1 and NKG2D all from Biolegend.

[3] = test system: TiNKs / HC-NK cells rendered dysfunctional by GSCs; assay: Reversal of established NK cell dysfunction (TiNKs ex vivo; NK cell recovery assays); assay type: cell-based, human
Experimental: FIGS. 11A-11G. […] (FIG. 11A) NK cells were incubated with or without galunisertinib (10 μM) or LY2109761 (10 μM) for 48 hours. Representative zebra plots show their CD107a, IFN-γ, and TNF-α response to K562 targets. NK cells were gated on CD3-CD56+ lymphocytes. Inset numbers are the percentages of CD107a-, IFN-γ- or TNF-α-positive NK cells within the gated NK cell population. (FIGS. 11B-11C) NK cells were cultured either alone or with GSCs in a 1:1 ratio with or without LY2109761 or galunisertib for 48 hrs. Representative zebra plots and summary box plots show their CD107, IFN-γ, and TNF-α expression response to K562 (FIG. 11B) or GSC (FIG. 11C) targets. Effector:target ratio is 5:1. NK cells were defined as CD3-CD56+ lymphocytes. Inset numbers are the percentages of CD107a-, IFN-γ- or TNF-α-positive NK cells (n=7, n=4 respectively). (FIG. 11D) TiNK cells were cultured for 24 hours in media with 5 ng/ml IL-15 with or without galunisertib. Representative zebra plots and bar graph summary show their CD107, IFN-γ, and TNF-α response to K562 targets. Effector:target ratio is 5:1. NK cells were gated on CD3-CD56+ lymphocytes. Inset numbers are the percentages of CD107a-, IFN-γ- or TNF-α-positive NK cells within the indicated regions. (n=3). (FIG. 11E) TiNK cells and paired PB-NK cells from GBM patients were cultured in the presence or absence of galunisertib for 12 hours. The bar graphs summarize the mean fluorescence intensity (MFI) for their p-Smad⅔ expression. Paired t test was performed to determine statistical significance (n=3). (FIG. 11F) Specific lysis (^51Cr release assay) of K562 targets by NK cells. After 48 hours of culture alone (blue lines) or with GSCs, healthy donor NK cells were either left with GSCs (red lines), or purified and re-suspended in media for another 48 hours (black lines). NK cells were then collected and used for ^51Cr release assay (n=4). (FIG. 11G) Specific lysis (^51Cr release assay) of K562 targets by NK cells. After 48 hours of culture alone (blue lines) or with GSCs, healthy donor NK cells were either left with GSCs ([…]) or purified and cultured in SCGM media plus 5 ng/ml IL-15 with (black lines) or without galunisertib (10 μM) (gray lines) for […]. At the end of the culture period, their cytotoxicity was tested against k562 targets by ^51Cr release assay (n=4).
NK cells were cultured either with GSCs in a 1:1 ratio or alone for 48 hours. After 48 hours of co-incubation, NK cells were then either purified again by bead selection and resuspended in SCGM media or remained in culture with GSCs for an additional 48 hours and then used for ^51Cr release assay. In a second assay, after reselection, NK cells were cultured for another 5 days in SCGM in the presence of 5 ng/ml IL-15 with or without 10 μM galunisertib before use for ^51Cr release assay.

c1ccc(-c2nn3c(c2-c2ccnc4cc(OCCN5CCOCC5)ccc24)CCC3)nc1 [LY2109761]
p-Smad⅔ expression (MFI) in NK cells co-cultured with GSCs [1]: prevented GSCs from activating the TGF-β1 Smad⅔ signaling pathway in NK cells | GSC-induced NK cell dysfunction: natural cytotoxicity against GSC targets (GSC targets): preserving the natural cytotoxicity of NK cells against K562 or GSC targets | NK cell function (CD107a, IFN-γ, TNF-α response to K562), NK cells without GSCs (K562 targets; NK cells alone, inhibitor 10 μM): neither inhibitor affected NK cell function

O=C(O)[C@@H](Cc1ccccc1)NS(=O)(=O)c1ccc(-c2ccccc2)cc1 [MMP 2/9 inhibitor]
p-Smad⅔ levels in NK cells with MMP 2/9 inhibitor ([1]; NK cells with or without GSCs, inhibitor 1 μM): decreased p-Smad⅔ levels | NK cell function in cultures lacking GSCs (K562 targets; MMP 2/9 inhibitor 1 μM): did not affect NK cell function in cultures lacking GSCs

CC(C)[C@H]1C(=O)N[C@@H](CCCN=C(N)N)C(=O)NCC(=O)N[C@@H](CC(=O)O)C(=O)N[C@H](Cc2ccccc2)C(=O)N1C [cilengitide]
p-Smad⅔ expression (MFI) in NK cells co-cultured with GSCs [1]: significantly decreased; also recorded: diminished Smad⅔ phosphorylation | tumor bioluminescence (BLI), first experiment (patient-derived GSCs; NK cells intratumorally every 7 days for 11 weeks, galunisertib oral 5 times a week, cilengitide i.p. three times a week): tumor bioluminescence rapidly increased | NK-mediated GBM killing / efficacy in PDX model of GBM (summary statements) (patient-derived GSCs; mouse, in vivo): enhances NK-mediated GBM killing in vivo | soluble TGF-β1 levels in supernatant (soluble TGF-β1): significantly decreased levels of soluble TGF-β1; also recorded: decreased TGF-β production | surface marker expression on TiNKs harvested after sacrifice [2]: protects NK cells from TGF-β induced inhibitory phenotype in vivo

IL-15: activating cytokine
reversal of GSC-induced dysfunction of HC-NK cells ([3]; NK cells purified after 48 hours with GSCs, then IL-15 5 ng/ml with or without galunisertib 10 μM): did not reverse the dysfunction of HC-NK cells induced by GSCs | restoration of TiNK function (specific lysis of K562; CD107, IFN-γ, TNF-α) ([3]; TiNKs cultured 24 hours, galunisertib 10 μM or IL-15 5 ng/ml): failed to inactivate the TGF-β1 Smad⅔ signaling pathway and restore NK cell dysfunction | TGF-β1 Smad⅔ signaling in TiNKs ([3]; TiNKs from GBM patients cultured ex vivo, galunisertib 12 hours or IL-15): failed to inactivate the TGF-β1 Smad⅔ signaling pathway

From patent publication US20220378739A1, “NATURAL KILLER CELL IMMUNOTHERAPY FOR THE TREATMENT OF GLIOBLASTOMA AND OTHER CANCERS” (BOARD OF REGENTS, THE UNIVERSITY OF TEXAS SYSTEM, priority 2019, published 2022)
